From patent US9079866B2, “Flap modulators” (JANSSEN PHARMACEUTICA NV, priority 2013, dated 2015) come the findings set out here.

The target in one assay is human FLAP (Homo sapiens (Human), UniProt P20292). The assay is described as follows: FLAP binding assay (HTRF format). The method in brief:
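Reported data take the mean of two different plates carrying duplicate samples and use the HTRF ratio as the measured signal.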

The subject of assay [1] is leukotriene pathway in human whole blood (LTB4 levels). The assay is described as follows: Human whole blood assay (A23187-stimulated LTB4). The format is cell-based. Particulars: Homo sapiens, human whole blood diluted 1:1 in RPMI, A23187-stimulated LTB4; read-out: LTB4 IC50 1:1. The method in brief: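 Blood (heparin) diluted 1:1 RPMI; compound pre-incubation 15 min, 37° Celsius; A23187 7 μg/mL, 30 min, 37° Celsius; plasma LTB4 by commercial kit. IC50 via 4-parameter equation.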

[2] abbreviates: human FLAP wild type, HTRF format, average of two plates, duplicates.
Setting [3] is: read-out: FLAP Binding wild type HTRF Ki.

Where a name gives a salt, the structure may show the parent alone. Read-outs that look alike come from different tables or passages of the source.

human FLAP, sequence (P20292 whole entry): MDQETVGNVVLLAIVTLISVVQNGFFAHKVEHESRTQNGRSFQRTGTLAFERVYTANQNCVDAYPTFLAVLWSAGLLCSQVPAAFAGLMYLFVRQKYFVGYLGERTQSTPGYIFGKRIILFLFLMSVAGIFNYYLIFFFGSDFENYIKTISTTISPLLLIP

Turning to `Nc1ncc(-c2ccc(-c3ccccc3S(=O)(=O)C3CC3)cc2F)cn1` [Example 254, 5-[2′-(Cyclopropylsulfonyl)-3-fluorobiphenyl-4-yl]pyrimidin-2-amine], affinity at human FLAP (setting [2]) was put at a Ki of 80 nM. In assay [1], the half-maximal inhibitory concentration (IC50) was determined as 586 nM.
Consider `CN([C@H]1CCCNC1)S(=O)(=O)c1ccccc1-c1ccc(-c2cnc(N)nc2)c(F)c1` [Example 256, 4′-(2-Aminopyrimidin-5-yl)-3′-fluoro-N-methyl-N-[(3S)-piperidin-3-yl]biphenyl-2-sulfonamide], for which, at human FLAP (setting [2]), the inhibition constant (Ki) amounted to 35 nM. Besides, the concentration for half-maximal inhibition (IC50) in assay [1] came to 73 nM.
Take `CN([C@@H]1CCCNC1)S(=O)(=O)c1ccccc1-c1ccc(-c2cnc(N)nc2)c(F)c1` [Example 257, 4′-(2-Aminopyrimidin-5-yl)-3′-fluoro-N-methyl-N-[(3R)-piperidin-3-yl]biphenyl-2-sulfonamide]: on human FLAP (setting [2]), the affinity corresponds to a Ki of 154 nM. The IC50 in assay [1] was 1120 nM.
Regarding `Nc1ncc(-c2ccc(-c3ccccc3S(=O)(=O)N3CCNC[C@@H]3CO)cc2F)cn1` [Example 258, [(2R)-1-{[4′-(2-Aminopyrimidin-5-yl)-3′-fluorobiphenyl-2-yl]sulfonyl}piperazin-2-yl]methanol], the affinity on human FLAP (setting [2]), expressed as Ki, was 243 nM. The IC50 in assay [1] came to 202 nM.
Turning to `CC(C)N(CCO)S(=O)(=O)c1ccccc1-c1ccc(-c2cnc(N)nc2)c(F)c1` [Example 261, 4′-(2-Aminopyrimidin-5-yl)-3′-fluoro-N-(2-hydroxyethyl)-N-(1-methylethyl)biphenyl-2-sulfonamide], the affinity at human FLAP (setting [2]), expressed as Ki, was 6 nM. Further, the IC50 in assay [1] is 75 nM.
For `Nc1ncc(-c2ccc(-c3ccccc3S(=O)(=O)N[C@H]3CC[C@H](O)CC3)cc2F)cn1` [Example 262, 4′-(2-Aminopyrimidin-5-yl)-3′-fluoro-N-(trans-4-hydroxycyclohexyl)biphenyl-2-sulfonamide] the same measures were 18 nM and 46 nM.
For `Nc1ncc(-c2ccc(-c3ccccc3S(=O)(=O)N[C@H]3CCNC3=O)cc2F)cn1` [Example 263, 4′-(2-Aminopyrimidin-5-yl)-3′-fluoro-N-[(3S)-2-oxopyrrolidin-3-yl]biphenyl-2-sulfonamide] the same measures were 169 nM and 207 nM.
`Nc1ncc(-c2ccc(-c3ccccc3S(=O)(=O)N3CCS(=O)(=O)CC3)cc2F)cn1` [Example 264, 5-{2′-[(1,1-Dioxidothiomorpholin-4-yl)sulfonyl]-3-fluorobiphenyl-4-yl}pyrimidin-2-amine trifluoroacetic salt] displayed an inhibition constant (Ki) on human FLAP (setting [2]) of 28 nM. In assay [1], the half-inhibitory concentration (IC50) was 144 nM.
Take `Nc1ncc(-c2ccc(-c3ccccc3S(=O)(=O)N3CC(O)C3)cc2F)cn1` [Example 265, 1-{[4′-(2-Aminopyrimidin-5-yl)-3′-fluorobiphenyl-2-yl]sulfonyl}azetidin-3-ol trifluoroacetic acid salt]: the affinity at human FLAP (setting [2]), expressed as Ki, was 45 nM. Also, the IC50 in assay [1] was determined as 160 nM.
As to `Nc1ncc(-c2ccc(-c3ccccc3S(=O)(=O)N[C@@H]3CCCNC3=O)cc2F)cn1` [Example 266, 4′-(2-Aminopyrimidin-5-yl)-3′-fluoro-N-[(3R)-2-oxopiperidin-3-yl]biphenyl-2-sulfonamide trifluoroacetic acid salt], the Ki at human FLAP (setting [3]) was found to be 184 nM. In addition, the half-inhibitory concentration (IC50) in assay [1] turned out to be 464 nM.
Turning to `Nc1ncc(-c2ccc(-c3ccccc3S(=O)(=O)N[C@H]3CCCNC3=O)cc2F)cn1` [Example 267, 4′-(2-Aminopyrimidin-5-yl)-3′-fluoro-N-[(3S)-2-oxopiperidin-3-yl]biphenyl-2-sulfonamide trifluoroacetic acid salt], the Ki at human FLAP (setting [3]) stood at 154 nM. Moreover, in assay [1], the IC50 was found to be 350 nM.
Turning to `C[C@@H](NS(=O)(=O)c1ccccc1-c1ccc(-c2cnc(N)nc2)c(F)c1)C(F)(F)F` [Example 268, 4′-(2-Aminopyrimidin-5-yl)-3′-fluoro-N-[(1R)-2,2,2-trifluoro-1-methylethyl]biphenyl-2-sulfonamide trifluoroacetic acid salt], on human FLAP (setting [3]), the Ki is 11 nM. In addition, in assay [1], the IC50 amounted to 56 nM.
Regarding `CC(C)(C)[C@H](CO)NS(=O)(=O)c1ccccc1-c1ccc(-c2cnc(N)nc2)c(F)c1` [Example 269, 4′-(2-Aminopyrimidin-5-yl)-3′-fluoro-N-[(1R)-1-(hydroxymethyl)-2,2-dimethylpropyl]biphenyl-2-sulfonamide trifluoroacetic acid salt], the Ki on human FLAP (setting [3]) amounted to 15 nM. Besides, in assay [1], the 50% inhibitory concentration (IC50) stood at 87 nM.
As for `CC(C)(C)[C@@H](CO)NS(=O)(=O)c1ccccc1-c1ccc(-c2cnc(N)nc2)c(F)c1` [Example 270, 4′-(2-Aminopyrimidin-5-yl)-3′-fluoro-N-[(1S)-1-(hydroxymethyl)-2,2-dimethylpropyl]biphenyl-2-sulfonamide trifluoroacetic acid salt], the inhibition constant (Ki) at human FLAP (setting [3]) was found to be 57 nM. Besides, the IC50 in assay [1] was 1060 nM.
Regarding `CC(C)[C@@H](CO)NS(=O)(=O)c1ccccc1-c1ccc(-c2cnc(N)nc2)c(F)c1` [Example 271, 4′-(2-Aminopyrimidin-5-yl)-3′-fluoro-N-[(1S)-1-(hydroxymethyl)-2-methylpropyl]biphenyl-2-sulfonamide trifluoroacetic acid salt], at human FLAP (setting [2]), affinity was put at a Ki of 51 nM. Further, in assay [1], the IC50 worked out at 606 nM.
Consider `CC(C)(O)CNS(=O)(=O)c1ccccc1-c1ccc(-c2cnc(N)nc2)c(F)c1` [Example 272, 4′-(2-Aminopyrimidin-5-yl)-3′-fluoro-N-(2-hydroxy-2-methylpropyl)biphenyl-2-sulfonamide trifluoroacetic acid salt], for which the inhibitory constant (Ki) on human FLAP (setting [3]) was 32 nM. Further, the IC50 in assay [1] was 125 nM.
`CC(C)[C@H](CO)NS(=O)(=O)c1ccccc1-c1ccc(-c2cnc(N)nc2)c(F)c1` [Example 273, 4′-(2-Aminopyrimidin-5-yl)-3′-fluoro-N-[(1R)-1-(hydroxymethyl)-2-methylpropyl]biphenyl-2-sulfonamide trifluoroacetic acid salt] showed a Ki on human FLAP (setting [2]) of 9 nM. For the same molecule, in assay [1], the half-inhibitory concentration (IC50) was found to be 105 nM.
With `Nc1ncc(-c2ccc(-c3ccccc3S(=O)(=O)NCCO)cc2F)cn1` [Example 275, 4′-(2-Aminopyrimidin-5-yl)-3′-fluoro-N-(2-hydroxyethyl)biphenyl-2-sulfonamide trifluoroacetic acid salt], on human FLAP (setting [3]), the inhibition constant (Ki) came to 65 nM. In addition, the IC50 in assay [1] was determined as 192 nM.
Regarding `Nc1ncc(-c2ccc(-c3ccccc3S(=O)(=O)N3CCC[C@@H]3CO)cc2F)cn1` [Example 276, [(2R)-1-{[4′-(2-Aminopyrimidin-5-yl)-3′-fluorobiphenyl-2-yl]sulfonyl}pyrrolidin-2-yl]methanol trifluoroacetic acid salt], the inhibitory constant (Ki) at human FLAP (setting [2]) was 23 nM. For the same molecule, in assay [1], the 50% inhibitory concentration (IC50) stood at 325 nM.
For `Nc1ncc(-c2ccc(-c3ccccc3S(=O)(=O)N3CCC[C@H]3CO)cc2F)cn1` [Example 277, [(2S)-1-{[4′-(2-Aminopyrimidin-5-yl)-3′-fluorobiphenyl-2-yl]sulfonyl}pyrrolidin-2-yl]methanol trifluoroacetic acid salt] the same measures were 52 nM and above 1000 nM.
With `C[C@@H](O)CNS(=O)(=O)c1ccccc1-c1ccc(-c2cnc(N)nc2)c(F)c1` [Example 278, 4′-(2-Aminopyrimidin-5-yl)-3′-fluoro-N-[(2R)-2-hydroxypropyl]biphenyl-2-sulfonamide-trifluoroacetic acid salt], at human FLAP (setting [2]), the inhibition constant (Ki) is 36 nM. Also, in assay [1], the IC50 was found to be 95 nM.
As for `C[C@H](O)CNS(=O)(=O)c1ccccc1-c1ccc(-c2cnc(N)nc2)c(F)c1` [Example 279, 4′-(2-Aminopyrimidin-5-yl)-3′-fluoro-N-[(2S)-2-hydroxypropyl]biphenyl-2-sulfonamide trifluoroacetic acid salt], at human FLAP (setting [2]), the Ki is 70 nM. Further, the IC50 in assay [1] worked out at 149 nM.
`CC(C)(CO)NS(=O)(=O)c1ccccc1-c1ccc(-c2cnc(N)nc2)c(F)c1` [Example 280, 4′-(2-Aminopyrimidin-5-yl)-3′-fluoro-N-(2-hydroxy-1,1-dimethylethyl)biphenyl-2-sulfonamide trifluoroacetic acid salt]: the Ki on human FLAP (setting [3]) is 3 nM. Besides, the IC50 in assay [1] came to 87 nM.
`Nc1ncc(-c2ccc(-c3ccccc3S(=O)(=O)N3CCN(CCO)CC3)cc2F)cn1` [Example 282, 2-(4-{[4′-(2-Aminopyrimidin-5-yl)-3′-fluorobiphenyl-2-yl]sulfonyl}piperazin-1-yl)ethanol trifluoroacetic acid salt]: the inhibitory constant (Ki) on human FLAP (setting [3]) worked out at 750 nM. Further, the IC50 in assay [1] is 280 nM.
`Nc1ncc(-c2ccc(-c3ccccc3S(=O)(=O)NCC3CC3)cc2F)cn1` [Example 283, 4′-(2-Aminopyrimidin-5-yl)-N-(cyclopropylmethyl)-3′-fluorobiphenyl-2-sulfonamide trifluoroacetic acid] had a Ki at human FLAP (setting [2]) of 9 nM. Further, the 50% inhibitory concentration (IC50) in assay [1] was 119 nM.
`Nc1ncc(-c2ccc(-c3ccccc3S(=O)(=O)NC3CC3)cc2F)cn1` [Example 284, 4′-(2-Aminopyrimidin-5-yl)-N-cyclopropyl-3′-fluorobiphenyl-2-sulfonamide trifluoroacetic acid salt] registered an inhibitory constant (Ki) on human FLAP (setting [2]) of 42 nM. For the same molecule, the IC50 in assay [1] is 1040 nM.
Consider `Nc1ncc(-c2ccc(-c3ccccc3S(=O)(=O)Nc3ccccc3)cc2F)cn1` [Example 285, 4′-(2-Aminopyrimidin-5-yl)-3′-fluoro-N-phenylbiphenyl-2-sulfonamide trifluoroacetic acid salt], for which, at human FLAP (setting [2]), the inhibition constant (Ki) came out at 3 nM. Moreover, the IC50 in assay [1] came to 111 nM.
`C[C@@H](CO)NS(=O)(=O)c1ccccc1-c1ccc(-c2cnc(N)nc2)c(F)c1` [Example 286, 4′-(2-Aminopyrimidin-5-yl)-3′-fluoro-N-[(1S)-2-hydroxy-1-methylethyl]biphenyl-2-sulfonamide trifluoroacetic acid salt] showed a Ki on human FLAP (setting [2]) of 142 nM. Moreover, in assay [1], the concentration for half-maximal inhibition (IC50) was 206 nM.
